This note sets out measurements from patent US7399775B2, “β-amyloid protein production/secretion inhibitor” (Daiichi Pharmaceutical Co., Ltd., priority 2001, dated 2008).

pEC50: −log10 of the molar value. Like-named read-outs stand apart in the source and are kept apart here. Some results are limits rather than exact numbers.

One may read the melting point as the temperature of the solid-liquid transition. As usually defined, the pEC50 is the EC50 on a negative log10 scale, so that one unit is a factor of ten.

Data set [1] deals with β-amyloid protein (Aβ) production/secretion in E35 cells (H4 cells transfected with APP751). Kind of data set: Cell-based assay for inhibition of production or secretion of β-amyloid protein (sandwich ELISA of Aβ in culture medium). Further details: species or system human. Conditions: 24 h with compound, Aβ in medium by sandwich ELISA, read-out: Activity (EC50 class, inhibition of Aβ secreted in culture medium). As for the experimental part: Cell-Based Assay for Screening of a Compound Which Inhibits Production or Secretion of β-Amyloid Protein
E35 cells which were established by transfecting APP751 gene which is a wild type human β-amyloid protein precursor into human glioma cells (H4 cells), were used to analyze inhibitory activity of a compound against β-amyloid production. The amount of β protein (Aβ) secreted in a culture medium was measured by the sandwich enzyme-linked imunosorbent assay.
E35 cells were seeded in Dulbecco's Modified Eagle's Medium containing 10% inactivated fetal bovine serum on 96-well plates and cultured in humidified air and 5% CO2 at 37° C. in a CO2 incubator. Twenty-four hours after seeding of the cells, a test compound dissolved in DMSO was added to the medium. The DMSO solution of the compound was prepared so as to give the final concentration of DMSO in the medium 0.05%. The cells were cultured for additional twenty-four hours, and then the cultured medium was collected. The medium collected was applied to a 96-well ELISA plate on which a monoclonal antibody 25-1, which recognized Aβ25-35, was immobilized, followed by the incubation at 4° C. for 16 to 20 hours. After washing with a phosphate buffer (pH 7.4), a biotinylated monoclonal antibody MA32-40, which recognizes Aβ1-8, was added to the plate, and the plate was incubated at 4° C. for 2 hours. Then alkaline phosphatase-conjugated streptavidin was added to the plate. Alkaline phosphatase activity was measured by a […] assay using BlouPhos (manufactured by KPL) as a substrate. An amount of Aβ in the medium was calculated using a calibration curve separately created. EC50 of the test compound was presented as the concentration that gives 50% inhibitory activity compared to the control cells which were not treated with the compound.
On the technique in general: In an ELISA, binding on a coated surface is turned into a signal by an enzyme label.

In turn, `O=S(=O)(c1ccc(Cl)cc1)C(CCOCCO)c1cc(F)ccc1F` (stereo not shown) [Example 35, 2-[3-[(4-Chlorophenyl)sulfonyl]-3-(2,5-difluorophenyl)propoxy]ethanol] came in with a melting point of 41 to 46 °C. The pEC50 in data set [1] (Homo sapiens, 24 h) is 5.30 to 6.30.

On to `CCCCC(c1cc(F)ccc1F)[S+]([O-])c1ccc(Cl)cc1` (single isomer, unassigned) [Example 2 (Isomer 2-B), 2-[1-[(4-Chlorophenyl)sulfinyl]pentyl]-1,4-difluorobenzene], for which the pEC50 in data set [1] (Homo sapiens, 24 h) is 5.30 to 6.30.

Take `CCCC=C(c1cc(F)ccc1F)S(=O)(=O)c1ccc(Cl)cc1` [Example 12, 2-[1-[(4-Chlorophenyl)sulfonyl]-1-penten-1-yl]-1,4-difluorobenzene]: the melting point was in the range of 95.5 to 97 °C. Moreover, the pEC50 in data set [1] (Homo sapiens, 24 h) is 5.30 to 6.30.

The molecule `CCC=CC(c1cc(F)ccc1F)S(=O)(=O)c1ccc(Cl)cc1` (stereo not shown) [Example 14, 2-[1-[(4-Chlorophenyl)sulfonyl]-2-penten-1-yl]-1,4-difluorobenzene] registered a melting point of 99 to 100 °C. Further, the negative-log EC50 (pEC50) in data set [1] (Homo sapiens, 24 h) is 5.30 to 6.30.

As for `O=S(=O)(c1ccc(Cl)cc1)C(c1ccncc1)c1cc(F)ccc1F` (stereo not shown) [Example 142, 4-[[(4-Chlorophenyl)sulfonyl]-(2,5-difluorophenyl)methyl]pyridine], the melting point fell in the range of 126 to 127 °C. For the same molecule, in data set [1] (Homo sapiens, 24 h), the pEC50 was 6.30 to 7.30.

`CC(CCCS(C)(=O)=O)C(c1cc(F)ccc1F)S(=O)(=O)c1ccc(Cl)cc1` (stereo not shown) [Example 46, 2-[1-[(4-Chlorophenyl)sulfonyl]-2-methyl-5-(methylsulfonyl)pentyl]-1,4-difluorobenzene] returned a melting point of 115 to 117 °C. Besides, in data set [1] (Homo sapiens, 24 h), the pEC50 was 6.30 to 7.30.

On to `CS(=O)(=O)NCc1ccc(C(c2cc(F)ccc2F)S(=O)(=O)c2ccc(Cl)cc2)nc1` (stereo not shown) [Example 370, N-[[6-(4-Chlorophenylsulfonyl)(2,5-difluorophenyl)methylpyridin-3-yl]methyl]methanesulfonamide], for which the pEC50 in data set [1] (Homo sapiens, 24 h) was 6.30 to 7.30.

Regarding `[O-][S+](c1ccc(Cl)cc1)C(c1cc(F)ccc1F)c1ccncc1Cl` (stereo not shown) [Example 344, 3-Chloro-4-[(4-chlorophenylsulfinyl)-(2,5-difluorophenyl)methyl]pyridine], the negative logarithm of the EC50 (pEC50) in data set [1] (Homo sapiens, 24 h) is at least 7.30.

Turning to `CC(CCCS(C)(=O)=O)C(c1cc(F)ccc1F)S(=O)(=O)c1ccc(Cl)cc1` (stereo not shown) [Example 47, 2-[1-[(4-Chlorophenyl)sulfonyl]-2-methyl-5-(methylsulfonyl)pentyl]-1,4-difluorobenzene], the melting point is 142 to 144 °C. In addition, the pEC50 in data set [1] is at least 7.30.

On to `CCCCC(c1cc(F)ccc1F)S(=O)(=O)c1ccc(Cl)cc1` (stereo not shown) [Example 3, 2-[1-[(4-Chlorophenyl)sulfonyl]pentyl]-1,4-difluorobenzene], for which, in data set [1] (Homo sapiens, 24 h), the pEC50 was 6.30 to 7.30.

Regarding `CC(CCCCO)(c1cc(F)ccc1F)S(=O)(=O)c1ccc(Cl)cc1` (stereo not shown) [Example 17, 5-(4-Chlorophenylsulfonyl)-5-(2,5-difluorophenyl)-1-hexanol], the pEC50 in data set [1] (Homo sapiens, 24 h) was 5.30 to 6.30.

Molecule `O=S(=O)(c1ccc(Cl)cc1)C(CCCCCO)c1cc(F)ccc1F` (stereo not shown) [Example 32, 6-[(4-Chlorophenyl)sulfonyl]-6-(2,5-difluorophenyl)-1-hexanol] gave a melting point of 98 to 99 °C. The negative logarithm of the EC50 (pEC50) in data set [1] (Homo sapiens, 24 h) was 6.30 to 7.30.

As to `O=S(=O)(c1ccc(Cl)cc1)C(c1cc(F)ccc1F)c1cc(N2CCC[C@H]2CO)ncc1Cl` (stereo partly shown) [Example 399], the negative logarithm of the EC50 (pEC50) in data set [1] (Homo sapiens, 24 h) is at least 7.30.

The molecule `O=S(=O)(c1ccc(Cl)cc1)C(CCCCO)c1cc(F)ccc1F` (stereo not shown) [Example 29, 5-[(4-Chlorophenyl)sulfonyl]-5-(2,5-difluorophenyl)-1-pentanol] gave a melting point of 84 to 86 °C. The negative logarithm of the EC50 (pEC50) in data set [1] (Homo sapiens, 24 h) is 6.30 to 7.30.

For `CS(=O)(=O)CCCCC(c1cc(F)ccc1F)S(=O)(=O)c1ccc(Cl)cc1` (stereo not shown) [Example 27 (Compound A), 2-[1-[(4-Chlorophenyl)sulfonyl]-5-(methylsulfonyl)pentyl]-1,4-difluorobenzene], the pEC50 in data set [1] (Homo sapiens, 24 h) was 6.30 to 7.30.

Turning to `O=S(=O)(c1ccc(Cl)cc1)C(c1cc(F)ccc1F)c1cc(Cl)ncc1Cl` (stereo not shown) [Example 345, 2,5-Dichloro-4-[(4-chlorophenylsulfonyl)-(2,5-difluorophenyl)methyl]pyridine 0.5 hydrate], in data set [1] (Homo sapiens, 24 h), the pEC50 is at least 7.30.

Turning to `NCC1CN(c2cc(C(c3cc(F)ccc3F)S(=O)(=O)c3ccc(Cl)cc3)c(Cl)cn2)CCO1` (stereo not shown) [Example 402, 2-Aminomethyl-4-[5-chloro-4-[(4-chlorophenylsulfonyl)-(2,5-difluorophenyl)methyl]pyridin-2-yl]morpholine], the pEC50 in data set [1] (Homo sapiens, 24 h) is at least 7.30.

Molecule `O=S(=O)(c1ccc(Cl)cc1)C1(c2cc(F)ccc2F)CCCCC1` [Example 33, 2-[1-[(4-Chlorophenyl)sulfonyl]cyclohexyl]-1,4-difluorobenzene] had a melting point of 137 to 139 °C. Also, in data set [1] (Homo sapiens, 24 h), the pEC50 is at least 7.30.

`CC(CCC[S+](C)[O-])C(c1cc(F)ccc1F)S(=O)(=O)c1ccc(Cl)cc1` (stereo not shown) [Example 45, 2-[1-[(4-Chlorophenyl)sulfonyl]-2-methyl-5-(methylsulfinyl)pentyl]-1,4-difluorobenzene] registered a melting point of 107 to 112 °C. The negative-log EC50 (pEC50) in data set [1] (Homo sapiens, 24 h) was at least 7.30.

Take `O=S(=O)(c1ccc(Cl)cc1)C(c1cc(F)ccc1F)c1cc(N2CCOCC2)ncc1Cl` (stereo not shown) [Example 347, 4-[5-Chloro-4-[(4-chlorophenylsulfonyl)-(2,5-difluorophenyl)methyl]pyridin-2-yl]morpholine]: the melting point is 180 to 181 °C. In addition, the negative logarithm of the EC50 (pEC50) in data set [1] (Homo sapiens, 24 h) was at least 7.30.

The molecule `O=S(=O)(c1ccc(Cl)cc1)C(c1ccc(CO)cn1)c1cc(F)ccc1F` (stereo not shown) [Example 331, 2-[(4-chlorophenylsulfonyl)(2,5-difluorophenyl)methyl]-5-(hydroxymethyl)pyridine] had a melting point of 151 to 152 °C. For the same molecule, the pEC50 in data set [1] (Homo sapiens, 24 h) was 6.30 to 7.30.

`O=C(O)CCc1ccc(C(c2cc(F)ccc2F)S(=O)(=O)c2ccc(Cl)cc2)nc1` (stereo not shown) [Example 334, 3-[6-[(4-Chlorophenylsulfonyl)-(2,5-difluorophenyl)methyl]pyridin-3-yl]propionic Acid] came in with a melting point of 158 to 160 °C. Moreover, in data set [1] (Homo sapiens, 24 h), the negative logarithm of the EC50 (pEC50) is 6.30 to 7.30.

As to `CCCC(O)C(c1cc(F)ccc1F)S(=O)(=O)c1ccc(Cl)cc1` (stereo not shown) [Example 10, 1-[(4-Chlorophenyl)sulfonyl]-1-(2,5-difluorophenyl)-2-pentanol], the melting point is 134.5 to 135 °C. In addition, the negative logarithm of the EC50 (pEC50) in data set [1] (Homo sapiens, 24 h) was 6.30 to 7.30.

`Cc1cccnc1C(c1cc(F)ccc1F)S(=O)(=O)c1ccc(Cl)cc1` (stereo not shown) [Example 136, 2-[[(4-Chlorophenyl)sulfonyl]-(2,5-difluorophenyl)methyl]-3-methylpyridine] yielded a melting point of 142 to 143 °C. The negative logarithm of the EC50 (pEC50) in data set [1] (Homo sapiens, 24 h) was at least 7.30.

On to `O=S(=O)(c1ccc(Cl)cc1)C(c1cccnc1)c1cc(F)ccc1F` (stereo not shown) [Example 141, 3-[[(4-Chlorophenyl)sulfonyl]-(2,5-difluorophenyl)methyl]pyridine], for which the melting point was 130 to 131 °C. Moreover, in data set [1] (Homo sapiens, 24 h), the pEC50 was 6.30 to 7.30.

In the case of `O=S(=O)(c1ccc(Cl)cc1)C(c1cc(F)ccc1F)C1CCSCC1` (stereo not shown) [Example 288, 4-[[(4-Chlorophenyl)sulfonyl](2,5-difluorophenyl)methyl]tetrahydrothiopyran], the melting point lay in the range of 150 to 152 °C. Also, the pEC50 in data set [1] (Homo sapiens, 24 h) was 6.30 to 7.30.

`O=S(=O)(c1ccc(Cl)cc1)C1(c2cc(F)ccc2F)CCOCC1` [Example 48, 4-[(4-Chlorophenyl)sulfonyl]-4-(2,5-difluorophenyl)tetrahydropyrane]: the melting point lay in the range of 157 to 160 °C. In data set [1] (Homo sapiens, 24 h), the negative-log EC50 (pEC50) is at least 7.30.

On to `CSCCCC(C)C(c1cc(F)ccc1F)S(=O)(=O)c1ccc(Cl)cc1` (single isomer, unassigned) [Example 43 (Isomer 43-A), 2-[1-[(4-Chlorophenyl)sulfonyl]-2-methyl-5-(methylthio)pentyl]-1,4-difluorobenzene], for which the pEC50 in data set [1] (Homo sapiens, 24 h) is 6.30 to 7.30.

As to `CNCCN(C)c1cc(C(c2cc(F)ccc2F)S(=O)(=O)c2ccc(Cl)cc2)c(Cl)cn1` (stereo not shown) [Example 397, 5-Chloro-4-[(4-chlorophenylsulfonyl)-(2,5-difluorophenyl)methyl]-2-[N-methyl-N-[2-(methylamino)ethyl]amino]pyridine], in data set [1] (Homo sapiens, 24 h), the negative-log EC50 (pEC50) was at least 7.30.

With `O=S(=O)(c1ccc(Cl)cc1)C(c1cc(F)ccc1F)c1cc(NCC[N+]2([O-])CCOCC2)ncc1Cl` (stereo not shown) [Example 349, 4-[2-[5-Chloro-4-[(4-chlorophenylsulfonyl)-(2,5-difluorophenyl)methyl]pyridin-2-yl]aminoethyl]morpholine N-Oxide], the pEC50 in data set [1] (Homo sapiens, 24 h) is at least 7.30.

Regarding `COC(=O)OCc1ccc(C(c2cc(F)ccc2F)S(=O)(=O)c2ccc(Cl)cc2)nc1` (stereo not shown) [Example 372, [6-(4-Chlorophenylsulfonyl)(2,5-difluorophenyl)methylpyridin-3-yl]methyl Methyl Carbonate], the negative-log EC50 (pEC50) in data set [1] (Homo sapiens, 24 h) is 6.30 to 7.30.
